From patent US12152083B2 (priority 2014, dated 2024)

Legend:
[1] = test system: Human Pancreatic cell line BxPC-3; assay: Cellular cytotoxicity of compounds, Example 3.1 (CellTiter-Glo); format: cell-based; conditions: five nights
Method: (§1) Compounds were tested on one or more of Human T-cell leukemia cell line Jurkat (ATCC: TIB-152); Human breast cancer cell lines HCC1954 (ATCC: CRL-2338) and JIMT-1 (DSMZ: ACC 589); Human Pancreatic cell line BxPC-3 (ATCC: CRL.1687), Human ovarian adenocarcinoma cell line SK-OV-3 (ATCC: HTB-77) and Human gastric carcinoma cell line NCI-N87 (ATCC: CRL. 5822); to assess their cytotoxicity.
(§2) Briefly, cells were obtained from commercial sources and cultured as described in the product sheet provided. Cells were removed from their culture vessels and the resulting cell suspension was counted using a ViCell (Beckman Coulter), then seeded at 25,000 cells/mL (2,500 cells/well) in Costar 3904 black walled, flat bottomed 96-well plates (cells were seeded in the inner 60 wells of 96-well TC plates, and outer edge wells filled with water). Adherent cell lines were incubated for one night at 37° C./5% CO2 atmosphere to allow the cells to attach to the microtiter plate surface, while suspension (Jurkat) cells were plated immediately before use. Cytotoxins were dissolved and serially diluted in dimethyl sulfoxide and then the solutions were added to complete growth medium at five-times the desired maximum final concentration. The cytotoxins were then titrated in growth medium, normally 1:3, over eight steps. A control with no test article present (growth medium alone) was included on each microtiter plate in sextuplicate. The prepared toxin titrations were added (25 μL/well) in triplicate to each cell line assayed. […] After the incubation, cell viability was measured using CellTiter-Glo® by adding 30 μL of prepared CellTiter-Glo® reagent to each assay well. The mixtures were incubated for at least twenty minutes in the dark prior to measuring emitted luminescence using a microplate luminometer (500 ms integration time). The collected relative luminescence units (RLU) were converted to % cytotoxicity using the growth medium alone control mentioned above (% Cytotoxicity=1−[well RLU/average medium alone control RLU]×[…]).

[2] = test system: Human T-cell leukemia cell line Jurkat; assay: as above; format: cell-based; conditions: three nights
Method: as §1, §2

[3] = test system: Human gastric carcinoma cell line NCI-N87; assay: as above; format: cell-based; conditions: five nights
Method: as §1, §2

Jurkat cells = assay: Cell cycle arrest assay; format: cell-based; conditions: 50 nM, 24 h, propidium iodide
Method: Jurkat cells (ATCC), cultured in RMPI-1640 media supplemented with 10% FBS, were obtained in logarithmic growth. 1 million cells/ml were seeded into a 12-well tissue-culture treated plate in a 950 μL volume. Cells were treated with Compound 5 in 50 μL of growth media such that the final concentration of Compound 5 was 50 nM, control cells were given 50 μL of growth media alone. Cells were incubated for 24 h at 37° C., 5% CO2 in a humidified incubator. Following incubation, cells were thoroughly resuspended and transferred to 5 mL FACS tubes, and stored on ice. Two washes were performed by spinning cells down in a swinging-bucket centrifuge at 450×g for 4 min, resuspending in 1 mL ice-cold PBS. Cells were fixed through the addition of 3 mL ice-cold 100% ethanol in a dropwise fashion under vortex, and immediately stored at 4° C. for 1 h. During the 1 h incubation, the following staining solution was prepared in ice-cold PBS: 10 μg/ml propidium iodide, 10 U/ml RNAse 1f, and 0.05% Triton X-100. Following the 1 h fixation incubation, ethanol was removed by spinning cells as described above, and washing twice in 1 mL ice-cold PBS. Cells were resuspended in 500 μL of the above-mentioned staining solution, and incubated at room temperature for 1 h. […] Histograms were generated using FCS Express, plotting # of events against fluorescence in FL-3.

Jurkat cell line = assay: Cytotoxicity of compounds, Example 3 (CellTiter-Glo, 3 days); format: cell-based, Human; conditions: titrated 1:3 starting with 30 nM
Method: Compounds were tested on Jurkat and HCC1954 cell lines to assess their cytotoxicity. Compounds were titrated 1:3 starting at various concentrations (30 nM to 1000 nM). Control cytotoxin HTI-286 (see, e.g., U.S. Pat. No. 7,579,323) was also titrated 1:3 across starting with a 30 nM concentration. Plates were incubated for 3 days. Cell viability was quantified using 30 μL/well of 1× CellTiter-Glo reagent.
Each cell line was grown in its respective growth medium until seeding day. Cells were removed from their culture vessels and the resulting cell suspension was counted using the ViCell. Cells were then diluted in their growth medium to 25000/mL such that 100 μL/well=2500 cells/well. Each cell line was seeded in the inner 60 wells of 96-well black walled TC plates, outer wells filled with water. HCC1954 were seeded a day prior to assay set up. Cytotoxins were diluted as described below a 5× dose-response of each compound was prepared using RPMI+10% FBS in a deep-well 96-well plate. This “master” dilution plate was used for each cell line. 25 μL of the 5× dose responses was spiked into each cell line in triplicate. The plates were returned to the incubator and were incubated for 3 nights. After the 3 nights, cell viability was quantified using 30 μL/well of 1× CellTiter-glo reagent. After at least 10 minutes of incubation, the luminescence was measured using the SpectraMax (500 ms integration).

[4] = test system: Jurkat, HCC1954, NCI-N87, BxPC-3, SK-OV-3, and JIMT-1 Cell Lines; assay: Cellular cytotoxicity, Example 3.1, control cytotoxin on all cell lines; format: cell-based, Human; conditions: Example 3.1 cell lines
Method: as §1
Briefly, cells were obtained from commercial sources and cultured as described in the product sheet provided. Cells were removed from their culture vessels and the resulting cell suspension was counted using a ViCell (Beckman Coulter), then seeded at 25,000 cells/mL (2,500 cells/well) in Costar 3904 black walled, flat bottomed 96-well plates (cells were seeded in the inner 60 wells of 96-well TC plates, and outer edge wells filled with water). […] After the incubation, cell viability was measured using CellTiter-Glo® by adding 30 μL of prepared CellTiter-Glo® reagent to each assay well. The mixtures were incubated for at least twenty minutes in the dark prior to measuring emitted luminescence using a microplate luminometer (500 ms integration time). The collected relative luminescence units (RLU) were converted to % cytotoxicity using the growth medium alone control mentioned above (% Cytotoxicity=1−[well RLU/average medium alone control RLU]×[…]).

CC[C@H](C)[C@@H]([C@@H](CC(=O)N1CCC[C@H]1[C@H](OC)[C@@H](C)C(=O)NS(=O)(=O)c1ccc(NC(=O)C(F)(F)F)cc1)OC)N(C)C(=O)[C@@H](NC(=O)[C@@H](NC)C(C)(C)c1ccccc1)C(C)C [Compound 18]
EC50 [1]: 2.3 nM
EC50 [2]: 1.5 nM
EC50 [3]: 0.9 nM

CC[C@H](C)[C@@H]([C@@H](CC(=O)N1CCC[C@H]1[C@H](OC)[C@@H](C)C(=O)NS(=O)(=O)c1ccc(N)cc1)OC)N(C)C(=O)[C@@H](NC(=O)[C@H](C(C)C)N(C)C)C(C)C [Compound 5, (S)—N-((3R,4S,5S)-1-((S)-2-((1R,2R)-3-(4-Aminophenylsulfonamido)-1-methoxy-2-methyl-3-oxopropyl)pyrrolidin-1-yl)-3-methoxy-5-methyl-1-oxoheptan-4-yl)-2-((S)-2-(dimethylamino)-3-methylbutanamido)-N,3-dimethylbutanamide]
DNA content histograms, cell cycle phase (Jurkat cells): pronounced shift towards G2/M phase of the cell cycle

CN[C@H](C(=O)N[C@H](C(=O)N(C)[C@H](/C=C(\C)C(=O)O)C(C)C)C(C)(C)C)C(C)(C)c1ccccc1 [HTI-286]
killing of Jurkats by control cytotoxin (Jurkat cell line): successfully killed Jurkats at an expected concentration
killing of all cell lines by control cytotoxin [4]: successfully killed all cell lines at an expected concentration
